Laboratory results: patent publication US5994349A, “3-carboalkoxy-2, 3-dihydro-1H-phenothiazin-4[10H]-one derivatives” (priority 1997, dated 1999)
Like-named read-outs stand apart in the source and are kept apart here.

Legend:
neurotoxicity (rotorod) [1] = test: rotorod toxicity, oral rat (Phase VIA/VIB); assay type: in vivo, male Sprague-Dawley rats; conditions: rat oral, 30 mg/kg
Description: (§1) Initial evaluations for anticonvulsant activity include phases I, VIA and VIB test procedures. These tests are performed intraperitoneally in male Carworth Farms No. 1 (CF1) mice, weighing 18-25 g (Phase I) or orally in male Sprague-Dawley rats, weighing 100-150 g (Phases VIA and VIB). The evaluation is based on three tests: maximal electroshock (MES), subcutaneous (scMet), and the rotorod test for neurological toxicity (Tox). (a) Anticonvulsant Screening Project, Antiepileptic Drug Development Program, National Institutes of Health, DHEW Publ (NIH)(U.S.) 1978, NIH 78-1093. (b) Porter, R. J.; Cereghino, J. J.; Gladding, G. D.; Hessie, B. J.; Kupferberg, H. J.; Scoville, B.; White, B. G. Antiepileptic drug development program. Cleveland Clin. Q. 1984, 51, 293-305. (c) Krall, R. L.; Penry, J. K.; White, B. G.; Kupferberg, H. J.; Swinyard, E. A. Antiepileptic drug development: II. Anticonvulsant drug screening. Epilepsia 1978, 19, 400-428. In the MES test, maximal electroshock seizures are elicited with a 60- cycle alternating current of 50 mA intensity (5-7 times that necessary to elicit minimal electroshock seizures) delivered via corneal electrodes for 0.2 seconds. A drop of 0.9% saline is placed on the eye prior to application of the electrodes in order to […]. Abolition of the hind limb tonic extension component of the seizure is defined as protection and results are expressed as the number of animals protected/the number of animals tested.
The rotorod test is used to evaluate neurotoxicity. The animal is placed on a 1 inch diameter knurled plastic rod rotating at 6 rpm. Normal mice can remain on a rod rotating at this speed indefinitely.
(§2) To differentiate the results between different rodent species, 4b (X=H), as well as 4a (R=H), 4e (R=Cl), 4f (R=Cl) and 4i (R=CH3) are subsequently evaluated for oral (po) activity in the rat (Phase VIA or VIB).

[2] = tested on: maximal electroshock seizures; test: maximal electroshock (MES) test, Phase I, mice ip; assay type: in vivo, male Carworth Farms No. 1 (CF1) mice; conditions: Mus musculus
Description: as §1
In phase I, compounds are suspended in 0.5% aqueous methylcellulose and are administered intraperitoneally at three dosage levels (30, 100, and 300 mg/kg) with anticonvulsant activity and motor impairment noted 30 min and 4 h (and in some cases 2 h and 6 h) after administration.

[3] = tested on: pentylenetetrazol seizures; test: subcutaneous pentylenetetrazol (scMet) test, Phase I, mice ip; assay type: in vivo, male Carworth Farms No. 1 (CF1) mice; conditions: for responders at 30 mg/kg / responders at 100 mg/kg / responders at 300 mg/kg / responders at 10 mg/kg: Mus musculus
Description: as §1
In the sc MET test, eighty-five mg/kg of pentylenetetrazol, which induces seizures in more than 95% of mice, is administered as a 0.5% solution subcutaneously in the posterior midline. The animal is observed for 30 minutes. Failure to observe even a threshold seizure (a single episode of clonic spasms of at least 5 seconds duration) is defined as protection and the results are expressed as the number of animals protected/ the number of animals tested. […]

neurotoxicity (rotorod) [4] = test: rotorod test for neurological toxicity (Tox), Phase I, mice ip; assay type: in vivo, male Carworth Farms No. 1 (CF1) mice
Description: as §1
The rotorod test is used to evaluate neurotoxicity. The animal is placed on a 1 inch diameter knurled plastic rod rotating at 6 rpm. Normal mice can remain on a rod rotating at this speed indefinitely. […]

[5] = tested on: maximal electroshock seizures; test: maximal electroshock (MES) test, oral rat (Phase VIA/VIB); assay type: in vivo, male Sprague-Dawley rats; conditions: 30 mg/kg
Description: as §1, §2

[6] = 4 h, read-out: MES 4 h (converted)
[7] = 0.5 h, 30 min, read-out: MES 30 min (converted)
[8] = 0.5 h, mice ip, 30 min, read-out: scMet 30 min
[9] = 0.5 h, mice ip, 30 min, read-out: scMet 30 min (converted)
[10] = mice ip, 4 h, read-out: scMet 4 h
[11] = mice ip, 4 h, read-out: scMet 4 h (converted)

COC(=O)[C@@H]1C(=O)C2=C(C[C@H]1C)Nc1ccc(Cl)cc1S2 (relative stereo) [Compound 4e, 7-Chloro-3-carbomethoxy-2-methyl-2,3-dihydro-1H-phenothiazin-4[10H] -one]
Tox (neurotoxicity (rotorod) [1]; 0.25 h): 0/4
Tox (neurotoxicity (rotorod) [1]; 0.50 h): 0/4
Tox (neurotoxicity (rotorod) [1]; 1.00 h): 0/4
Tox (neurotoxicity (rotorod) [1]; 2.00 h): 0/4
Tox (neurotoxicity (rotorod) [1]; 4.00 h): 0/4
responders at 30 mg/kg ([2]; 4 h, read-out: MES 4 h): 0%
responders at 100 mg/kg [2, 6]: 66.7%
responders at 300 mg/kg [2, 6]: 100%
responders at 30 mg/kg [2, 7]: 0%
responders at 100 mg/kg [2, 7]: 0%
responders at 300 mg/kg [2, 7]: 0%
responders at 30 mg/kg [3, 8]: 0%
responders at 100 mg/kg [3, 8]: 0%
responders at 300 mg/kg [3, 9]: 0%
responders at 30 mg/kg [3, 10]: 0%
responders at 100 mg/kg [3, 10]: 0%
responders at 300 mg/kg [3, 11]: 0%
Tox 30 min (neurotoxicity (rotorod) [4]; 30 mg/kg): 0/4
Tox 4 h (neurotoxicity (rotorod) [4]; 30 mg/kg): 0/2
Tox 30 min (neurotoxicity (rotorod) [4]; 100 mg/kg): 0/8
Tox 4 h (neurotoxicity (rotorod) [4]; 100 mg/kg): 0/4
Tox 30 min (neurotoxicity (rotorod) [4]; 300 mg/kg): 0/4
Tox 4 h (neurotoxicity (rotorod) [4]; 300 mg/kg): 0/2
responders at 30 mg/kg ([5]; 0.25 h): 0%
responders at 30 mg/kg ([5]; 1.00 h): 75%
responders at 30 mg/kg ([5]; 2.00 h): 75%
responders at 30 mg/kg ([5]; 4.00 h): 50%
responders at 30 mg/kg ([5]; 0.5 h, 0.50 h): 0%

COC(=O)[C@@H]1C(=O)C2=C(C[C@H]1C)Nc1ccccc1S2 (relative stereo) [Compound 4a, 3-Carbomethoxy-2-methyl-2,3-dihydro-1H-phenothiazin-4[10H] -one]
Tox (neurotoxicity (rotorod) [1]; 0.25 h): 0/4
Tox (neurotoxicity (rotorod) [1]; 0.50 h): 0/4
Tox (neurotoxicity (rotorod) [1]; 1.00 h): 0/4
Tox (neurotoxicity (rotorod) [1]; 2.00 h): 0/4
Tox (neurotoxicity (rotorod) [1]; 4.00 h): 0/4
responders at 30 mg/kg ([2]; 4 h, read-out: MES 4 h): 0%
responders at 100 mg/kg [2, 6]: 33.3%
responders at 300 mg/kg [2, 6]: 100%
responders at 30 mg/kg [2, 7]: 0%
responders at 100 mg/kg [2, 7]: 100%
responders at 300 mg/kg [2, 7]: 100%
responders at 30 mg/kg [3, 8]: 0%
responders at 100 mg/kg [3, 8]: 0%
responders at 300 mg/kg [3, 9]: 0%
responders at 30 mg/kg [3, 10]: 0%
responders at 100 mg/kg [3, 10]: 0%
responders at 300 mg/kg [3, 11]: 0%
Tox 30 min (neurotoxicity (rotorod) [4]; 30 mg/kg): 0/4
Tox 4 h (neurotoxicity (rotorod) [4]; 30 mg/kg): 0/2
Tox 30 min (neurotoxicity (rotorod) [4]; 100 mg/kg): 0/8
Tox 4 h (neurotoxicity (rotorod) [4]; 100 mg/kg): 0/4
Tox 30 min (neurotoxicity (rotorod) [4]; 300 mg/kg): 1/4
Tox 4 h (neurotoxicity (rotorod) [4]; 300 mg/kg): 0/2
responders at 30 mg/kg ([5]; 0.25 h): 0%
responders at 30 mg/kg ([5]; 1.00 h): 50%
responders at 30 mg/kg ([5]; 2.00 h): 25%
responders at 30 mg/kg ([5]; 4.00 h): 50%
responders at 30 mg/kg ([5]; 0.5 h, 0.50 h): 25%

CCOC(=O)[C@@H]1C(=O)C2=C(C[C@H]1C)Nc1ccc(C)cc1S2 (relative stereo) [Compound 4i, 3-Carbethoxy-2,7-dimethyl-2,3-dihydro-1H-phenothiazin-4[10H]-one]
Tox (neurotoxicity (rotorod) [1]; 0.25 h): 0/4
Tox (neurotoxicity (rotorod) [1]; 0.50 h): 0/4
Tox (neurotoxicity (rotorod) [1]; 1.00 h): 0/4
Tox (neurotoxicity (rotorod) [1]; 2.00 h): 0/4
Tox (neurotoxicity (rotorod) [1]; 4.00 h): 0/4
responders at 30 mg/kg ([2]; 4 h, read-out: MES 4 h): 0%
responders at 100 mg/kg [2, 6]: 0%
responders at 300 mg/kg [2, 6]: 100%
responders at 30 mg/kg [2, 7]: 50%
responders at 100 mg/kg [2, 7]: 33.3%
responders at 300 mg/kg [2, 7]: 100%
responders at 30 mg/kg [3, 8]: 0%
responders at 100 mg/kg [3, 8]: 0%
responders at 300 mg/kg [3, 9]: 0%
responders at 30 mg/kg [3, 10]: 0%
responders at 100 mg/kg [3, 10]: 0%
responders at 300 mg/kg [3, 11]: 0%
Tox 30 min (neurotoxicity (rotorod) [4]; 30 mg/kg): 0/4
Tox 4 h (neurotoxicity (rotorod) [4]; 30 mg/kg): 0/2
Tox 30 min (neurotoxicity (rotorod) [4]; 100 mg/kg): 0/8
Tox 4 h (neurotoxicity (rotorod) [4]; 100 mg/kg): 0/4
Tox 30 min (neurotoxicity (rotorod) [4]; 300 mg/kg): 0/4
Tox 4 h (neurotoxicity (rotorod) [4]; 300 mg/kg): 0/2
responders at 30 mg/kg ([5]; 0.25 h): 0%
responders at 30 mg/kg ([5]; 1.00 h): 75%
responders at 30 mg/kg ([5]; 2.00 h): 25%
responders at 30 mg/kg ([5]; 4.00 h): 0%
responders at 30 mg/kg ([5]; 0.5 h, 0.50 h): 50%

CCOC(=O)[C@@H]1C(=O)C2=C(C[C@H]1C)Nc1ccc(Cl)cc1S2 (relative stereo) [Compound 4f, 7-Chloro-3-carbethoxy-2-methyl-2,3-dihydro-1H-phenothiazin-4[10H] -one]
Tox (neurotoxicity (rotorod) [1]; 0.25 h): 0/4
Tox (neurotoxicity (rotorod) [1]; 0.50 h): 0/4
Tox (neurotoxicity (rotorod) [1]; 1.00 h): 0/4
Tox (neurotoxicity (rotorod) [1]; 2.00 h): 0/4
Tox (neurotoxicity (rotorod) [1]; 4.00 h): 0/4
responders at 30 mg/kg ([2]; 4 h, read-out: MES 4 h): 0%
responders at 100 mg/kg [2, 6]: 33.3%
responders at 300 mg/kg [2, 6]: 100%
responders at 30 mg/kg [2, 7]: 0%
responders at 100 mg/kg [2, 7]: 66.7%
responders at 300 mg/kg [2, 7]: 100%
responders at 30 mg/kg [3, 8]: 0%
responders at 100 mg/kg [3, 8]: 0%
responders at 300 mg/kg [3, 9]: 0%
responders at 30 mg/kg [3, 10]: 0%
responders at 100 mg/kg [3, 10]: 0%
responders at 300 mg/kg [3, 11]: 40%
Tox 30 min (neurotoxicity (rotorod) [4]; 30 mg/kg): 0/4
Tox 4 h (neurotoxicity (rotorod) [4]; 30 mg/kg): 0/2
Tox 30 min (neurotoxicity (rotorod) [4]; 100 mg/kg): 0/8
Tox 4 h (neurotoxicity (rotorod) [4]; 100 mg/kg): 0/4
Tox 30 min (neurotoxicity (rotorod) [4]; 300 mg/kg): 0/4
Tox 4 h (neurotoxicity (rotorod) [4]; 300 mg/kg): 0/2
responders at 30 mg/kg ([5]; 0.25 h): 0%
responders at 30 mg/kg ([5]; 1.00 h): 75%
responders at 30 mg/kg ([5]; 2.00 h): 75%
responders at 30 mg/kg ([5]; 4.00 h): 75%
responders at 30 mg/kg ([5]; 0.5 h, 0.50 h): 25%

COC(=O)[C@@H]1C(=O)C2=C(C[C@H]1C)Nc1ccc(Br)cc1S2 (relative stereo) [Compound 4j, 7-Bromo-3-carbomethoxy-2-methyl-2,3-dihydro-1H-phenothiazin-4[10H]-one]
Tox (neurotoxicity (rotorod) [1]; 0.25 h): 0/4
Tox (neurotoxicity (rotorod) [1]; 0.50 h): 0/4
Tox (neurotoxicity (rotorod) [1]; 1.00 h): 0/2
responders at 10 mg/kg ([2]; 4 h, read-out: MES 4 h): 0%
responders at 30 mg/kg ([2]; 4 h, read-out: MES 4 h): 0%
responders at 100 mg/kg [2, 6]: 0%
responders at 10 mg/kg ([2]; 0.5 h, 30 min, read-out: MES 30 min): 0%
responders at 30 mg/kg [2, 7]: 33.3%
responders at 100 mg/kg [2, 7]: 100%
responders at 10 mg/kg ([3]; 0.5 h, mice ip, 10 mg/kg, 30 min, read-out: scMet 30 min): 0%
responders at 30 mg/kg [3, 8]: 0%
responders at 100 mg/kg [3, 8]: 0%
responders at 10 mg/kg ([3]; mice ip, 10 mg/kg, 4 h, read-out: scMet 4 h): 0%
responders at 30 mg/kg [3, 10]: 0%
responders at 100 mg/kg [3, 10]: 0%
observation in scMet test (footnote g) ([3]; mice ip, 10 and 30 mg/kg, 30 min): Continuous seizure activity
observation in scMet test (footnote h) ([3]; mouse, in vivo, ip, 10 mg/kg): Death following continuous seizure
Tox 30 min (neurotoxicity (rotorod) [4]; 10 mg/kg): 0/4
Tox 4 h (neurotoxicity (rotorod) [4]; 10 mg/kg): 0/2
Tox 30 min (neurotoxicity (rotorod) [4]; 30 mg/kg): 0/8
Tox 4 h (neurotoxicity (rotorod) [4]; 30 mg/kg): 0/4
Tox 30 min (neurotoxicity (rotorod) [4]; 100 mg/kg): 0/4
Tox 4 h (neurotoxicity (rotorod) [4]; 100 mg/kg): 0/2
responders at 30 mg/kg ([5]; 0.25 h): 50%
responders at 30 mg/kg ([5]; 1.00 h): 50%
responders at 30 mg/kg ([5]; 0.5 h, 0.50 h): 75%
